Source: ChEMBL document CHEMBL1159099, “Structure and in vitro antitumor activity evaluation of brominated diterpenes from the red alga Sphaerococcus coronopifolius” (Bioorg Med Chem, 2010)
Activity calls are given as the source filed them. The calls are words filed in the database; no cut-off is given here.

Columns and labels:
PC-3 = assay: Growth inhibition of human apoptosis-sensitive PC3 cells after 72 hrs by MTT assay; format: functional, cell-based; conditions: PC-3, 72 h
SK-MEL-28 = assay: Growth inhibition of human apoptosis-resistant SK-MEL-28 cells after 72 hrs by MTT assay; format: functional, cell-based; conditions: SK-MEL-28, 72 h
[1] = Growth inhibition of human apoptosis-resistant U373 cells after 72 hrs by MTT assay; format: functional, cell-based, U-373MG ATCC; conditions: U373 MG
[2] = Growth inhibition of human apoptosis-resistant OE21 cells after 72 hrs by MTT assay; format: functional, cell-based; conditions: OE21, 72 h
A549 = assay: Growth inhibition of human apoptosis-resistant A549 cells after 72 hrs by MTT assay; format: functional, cell-based; conditions: A549, 72 h
LoVo = assay: Growth inhibition of human apoptosis-sensitive LoVo cells after 72 hrs by MTT assay; format: functional, cell-based
U-373MG ATCC [3] = assay: Cytostatic effect against human apoptosis-resistant U373 cells assessed as increase in mitosis duration at 16 uM after 72 hrs by computer-assisted phase contrast microscopy; format: functional, cell-based
U-373MG ATCC [4] = assay: Cytostatic effect against human apoptosis-resistant U373 cells at 7 uM assessed as induction of vacuolization after 72 hrs by computer-assisted phase contrast microscopy; format: functional, cell-based
U-373MG ATCC [5] = assay: Cytostatic effect against human apoptosis-resistant U373 cells assessed as inhibition of cell entry into mitosis at 3 uM after 72 hrs by computer-assisted phase contrast microscopy; format: functional, cell-based

| SMILES | IC50 (PC-3) [µM] | IC50 (SK-MEL-28) [µM] | IC50 (A549) [µM] | IC50 (LoVo) [µM] | IC50 [1] [µM] | IC50 [2] [µM] | inhibition (U-373MG ATCC [3]) | inhibition (U-373MG ATCC [4]) | inhibition (U-373MG ATCC [5]) |
| --- | --- | --- | --- | --- | --- | --- | --- | --- | --- |
| CC(=O)[C@H]1[C@@H]2[C@H]3CC[C@@H](C(C)C)[C@]3(C)CC[C@]2(C)[C@@H](Br)C[C@@H]1O [CORONONE] | 30 | 38 | 42 | 28 | 31 | 30 |  |  |  |
| CC(C)[C@@H]1CC[C@H](O)[C@H]2[C@H]3[C@](C)(CC[C@@]21CBr)[C@@H](Br)CC[C@@]3(C)O | 25 | 26 | 28.6 | 23 | 25 | 20 |  |  |  |
| CC(C)[C@@H]1C=C[C@H](OO)[C@H]2[C@@H]3[C@](C)(O)[C@@H](O)C[C@H](Br)[C@@]3(C)CC[C@@]21CBr | 28 | 28 | 26 | 28 | 22 | 27 |  |  |  |
| CC(C)[C@@H]1C=C[C@H](OO)[C@H]2[C@@H]3[C@](C)(O)[C@H](O)C[C@H](Br)[C@@]3(C)CC[C@@]21CBr | 30 | 31 | 40 | 22 | 32 | 25 |  |  |  |
| C=C1CC[C@@H]2[C@H]([C@@H]3[C@H](C)CC[C@H]13)C2(C)C | 35 | > 100 | 79 | 63 | 71 | 83 |  |  |  |
| C=C1CC[C@H]2[C@@H](C(C)C)CC[C@@H]2/C=C/[C@](C)(O)CC[C@H]1OC(C)=O [SPHAEROLLANE I] | 34 | 57 | 44 | 23 | 20 | 34 |  |  |  |
| CC(C)[C@@H]1CC=C[C@H]2[C@H]3[C@@](C)(C=CC(=O)[C@@]3(C)O)CC[C@]12CBr [SPHAEROCOCCENOL A] | 3.7 | 5.2 | 3.7 | 2.8 | 3.2 | 3 |  |  | Active |
| CC(C)[C@@H]1CC=C[C@H]2[C@@H]3[C@](C)(O)[C@H](O)C[C@H](Br)[C@@]3(C)CC[C@]12CBr | 26 | 29 | 28 | 26 | 25 | 25 |  |  |  |

The next lines start with results.

| IC50 (PC-3) [µM] | IC50 (SK-MEL-28) [µM] | IC50 (A549) [µM] | IC50 (LoVo) [µM] | SMILES | IC50 [1] [µM] | IC50 [2] [µM] | inhibition (U-373MG ATCC [3]) | inhibition (U-373MG ATCC [4]) | inhibition (U-373MG ATCC [5]) |
| --- | --- | --- | --- | --- | --- | --- | --- | --- | --- |
| 43 | > 100 | 63 | 56 | CC(C)[C@]1(O)C[C@H]2C[C@H]3[C@H]4[C@](C)(CC[C@@]31C2)[C@@H](Br)CC[C@@]4(C)O | 75 | 64 |  |  |  |
| 74 | 96 | 97 | 64 | CC(C)[C@@H]1CC[C@@H]2[C@@H](O)[C@H]3[C@](C)(CC[C@]21C)[C@@H](Br)CC[C@@]3(C)O [NEODOLASTANE] | 85 | 60 |  |  |  |
| 12 | 22 | 19 | 9 | CC(C)[C@@H]1CC=C[C@H]2[C@@H]3[C@](C)(O)[C@@H](O)C[C@H](Br)[C@@]3(C)CC[C@]12CBr | 16 | 19 | Active |  |  |
| 48 | 62 | 64 | 24 | C=C1CC[C@@]2(C)[C@H](/C=C/CC[C@H]1C(C)C)[C@](C)(O)[C@H](O)C[C@@H]2Br | 60 | 33 |  |  |  |
| 30 | 34 | 35 | 23 | CC(C)[C@@H]1CC=C[C@H]2[C@H]3[C@](C)(CC[C@]12CBr)[C@@H](Br)CC[C@@]3(C)O [BROMOSPHAEROL] | 30 | 28 |  |  |  |
| 30 | 43 | 38 | 26 | CC(C)[C@@H]1C[C@@H]2C[C@@]13CC[C@]1(C)[C@@H](Br)CC[C@@](C)(O)[C@H]1[C@@H]3[C@H]2O [BROMOTETRASPHAEROL] | 34 | 33 |  |  |  |
| 8.1 | 21 | 18 | 5.3 | CC(C)[C@@H]1CC=C[C@H]2[C@H]3[C@](C)(CC[C@]12CBr)[C@@H](O)CC(=O)[C@@]3(C)O | 7.2 | 8.4 |  | Active |  |
| 26 | 31 | 24 | 20 | CC(C)[C@@H]1C=C[C@H](O)[C@H]2[C@H]3[C@](C)(CC[C@@]21CBr)[C@@H](Br)CC[C@@]3(C)O [BROMOSPHAERODIOL] | 22 | 15 |  |  |  |
